Read-outs that look alike come from different tables or passages of the source. Values belong to the compound of their own block, whether it stands above or below them.
Tests used:
[1] = Pharmacokinetics of ginsenosides after single oral RGE with or without amoxicillin treatment; type: in vivo, mice; settings: mouse, in vivo, po, 2 g/kg
Description: Male ICR mice (7-weeks-year-old, 30–35 g) were purchased from Samtako Co. (Osan, Kyunggi-do, Korea). Animals were acclimatized for 1 week in an animal facility at Kyungpook National University. Food and water were available ad libitum.
(§1) Before blood sampling, mice were anesthetized using isoflurane (isoflurane vaporizer to 2% with oxygen flow at 0.8 L/min) for 5 min.

[2] = tested on: lactic acid bacteria (LAB)
[3] = Plasma amoxicillin concentrations after repeated oral administration of amoxicillin; type: in vivo, mice; settings: at 24, 48, and 72 h after the beginning of amoxicillin treatment (20 mg/kg/day oral, twice daily, 3 days)
Description: as §1
The standard calibration curve for amoxicillin was linear in the concentration range of 2–5000 ng/mL for the plasma samples, and the interday and intraday precision and accuracy were <15%.

LAB = tested on: LAB; parameters: method as in PMID 15902467; settings: cited from earlier work
[4] = Plasma protein binding by rapid equilibrium dialysis; type: in vitro ADME; settings: 4 h at 37 °C
Description: Briefly, 100 μL of mouse plasma containing 1 μM of each ginsenoside was added to the semipermeable membrane’s inner sample chamber (molecular weight cut-off 8000 Da), and 300 μL of PBS was added to the outer buffer chamber. The samples were then incubated for 4 h at 37 °C on a shaking incubator at 300 rpm, followed by collecting 30-μL aliquots from both the sample and buffer chambers.
Subsequent protocols were identical to the method described above except for the use of ice-cold IS solution (200 μL; 0.05 ng/mL berberine in acetonitrile) to 30 μL of the reaction samples.
Plasma protein binding was calculated using the following equation [31, 60]: Plasma protein binding=(1−Drug concentration in buffer chamber/Drug concentration in plasma sample chamber)×100(%).

Caco-2 cell monolayers = settings: Caco-2, pH 7.4
Description: (§2) The culture medium was replaced every other day. On the day of the experiment, the growth medium was discarded, and the attached cells were washed with prewarmed HBSS (pH 7.4) and preincubated with HBSS for 20 min at 37 °C, and the permeability assay was conducted as previously described [53]. Briefly, to measure the apical to basal permeability of each ginsenoside, 0.5 mL of HBSS containing 50 µM of individual ginsenoside (GRb1, GRb2, GRc, GRd, GRe, GRf, GRg1, GRg3, GRh1, GRh2, GF1, GF2, CK, PPD, or PPT) was added to the apical side (inside of the insert) and 1.5 mL of fresh HBSS was added to the basal side of the insert. […] Aliquots (0.1 mL) in basal side were transferred to clean tubes and stored at −80 °C until further analysis. Transport study was performed for 1 h based on the linearity of the cumulative transport amounts of ginsenosides against the transport time. The integrity of cell monolayers was evaluated before and after the permeability experiments by measuring the transepithelial electrical resistance (TEER) values using an epithelial volt/ohm meter (World Precision Instruments; Sarasota, FL, USA). […]
(§3) For the permeability calculation, the transport rate of ginsenosides and marker conpounds was calculated from the slope of the regression line from the mean permeated amounts vs. incubation time plot.

[5] = tested on: lactic acid bacteria (LAB); test: In vitro RGE fermentation with LAB
[6] = Recovery of ginsenosides from urine and feces for 48 h after RGE, amoxicillin vs control; settings: feces 48 h after single oral RGE 2 g/kg; vs control
Description: Aliquots (200 μL) of an IS (0.05 ng/mL berberine in methanol) were added to 30 μL of plasma or urine samples. Aliquots (600 μL) of an IS methanol solution containing 0.05 ng/mL berberine were added to 100 μL of 10% feces homogenate samples. […] After centrifugation, 200 μL of the supernatant was transferred to a clean tube and dried under a nitrogen stream at 40 °C. The residue was reconstituted using 100 μL of 70% methanol supplemented with 0.1% formic acid, and a 10-μL aliquot was injected into the LC–MS/MS system.

[7] = Recovery of ginsenosides from urine and feces for 48 h after RGE, amoxicillin with or without LAB; settings: feces 48 h after single oral RGE 2 g/kg; Amoxicillin + LAB vs amoxicillin
Description: (§4) Mice received amoxicillin (n = 12, 20 mg/kg, dissolved in water at 2 mL/kg, twice daily) for 3 days via oral gavage. From the 4th day, mice from the LAB + amoxicillin treatment group received LAB (2 g/kg suspended in water at 2 mL/kg, once daily) for 7 days via oral gavage. Mice from the amoxicillin treatment group received water (2 mL/kg, once daily) for 7 days via oral gavage.

Caco-2 cells = settings: cited from earlier work
[8] = cited from earlier work
[9] = Caco-2 permeability (apical to basal); settings: human, Caco-2, pH 7.4
Description: as §2, §3

[10] = tested on: lactic acid bacteria (LAB); test: Incubation of single ginsenoside with LAB (formation rate of metabolite ginsenoside); type: in vitro ADME; settings: 7 days, 37 °C, MRS broth
Description: To compare the involvement of LAB on individual ginsenoside, an aliquot (10 μL) of each ginsenoside stock solution (10 mM in methanol) was mixed with autoclaved MRS broth (550 mg/10 mL in distilled water) and added 2 g of LAB (contained 1 billion CFU). Then, the mixture was incubated for 7 days in a shaking incubator at 37 °C and 300 rpm. For the analysis of ginsenosides, 0.2 mL aliquot of incubation mixture was collected every 24 h for 7 days. The incubation medium was diluted 100-fold with distilled water and stored at −80 °C. For the ginsenoside analysis, 200 μL of an IS solution (0.05 ng/mL berberine in methanol) was added to 30 μL of 100-fold diluted samples.

[11] = parameters: method as in PMID 26470874; settings: 10–60 mg, intramuscular injection; cited from earlier work
[12] = Pharmacokinetics of ginsenosides after single oral RGE after amoxicillin with or without repeated LAB treatment; settings: single oral RGE 2 g/kg
Description: as §4
Blood sampling was performed using a sparse sampling method via the right or left retro-orbital vein under isoflurane anesthesia at 0, 2, 4, and 8 h after the RGE administration through the heparinized capillary tube. […] After centrifugation of the blood samples at 10,000× g for 1 min, 30 μL aliquots of plasma were stored at −80 °C until the analysis of the ginsenosides. Subsequent protocols were identical to the amoxicillin treated group.
Pharmacokinetic parameters were calculated using WinNonlin (version 5.1, Pharsight, Mountain View, CA, USA) by a non-compartmental analysis.

Compound: CC(C)=CCC[C@](C)(O)[C@H]1CC[C@]2(C)[C@@H]1[C@H](O)C[C@@H]1[C@@]3(C)CC[C@H](O)C(C)(C)[C@@H]3CC[C@]12C [PPD, 20(S)-proptopanaxadiol]
- Half-Life [1]: 7.9 ± 1.8 h
- MRT [1]: 12.6 ± 4.7 h
- Alteration of ginsenoside by fermentation of RGE with LAB [2]: significantly increased

Compound: CC(C)=CCC[C@](C)(O)[C@H]1CC[C@]2(C)[C@@H]1[C@H](O)C[C@@H]1[C@@]3(C)CC[C@H](O)C(C)(C)[C@@H]3[C@@H](O)C[C@]12C [PPT, 20(S)-protopanaxatriol]
- Half-Life [1]: 20.4 ± 2.3 h
- MRT [1]: 20.2 ± 2.2 h
- Plasma protein binding ([4]; 1 μM, mouse plasma): over 99%
- Papp,AB (Caco-2 cell monolayers): 3.72 ± 0.56 × 10^−6 cm/s
- Alteration of ginsenoside by fermentation of RGE with LAB ([5]; 7 days incubation): significantly increased
- Fecal recovery, change by the amoxicillin treatment [6]: significantly decreased
- Fecal recovery, change by LAB treatment [7]: significantly increased

Compound: CC(C)=CCC[C@](C)(O)[C@H]1CC[C@]2(C)[C@@H]1[C@H](O)C[C@@H]1[C@@]3(C)CC[C@H](O[C@@H]4O[C@H](CO)[C@@H](O)[C@H](O)[C@H]4O[C@@H]4O[C@H](CO)[C@@H](O)[C@H](O)[C@H]4O)C(C)(C)[C@@H]3CC[C@]12C [GRg3]
- Metabolite formation on incubation of single ginsenoside with LAB [10]: GRh2 and PPD were produced
- Increase of plasma exposure over the 6-fold dose range [11]: 7.3 fold
- Increase of ginsenoside by fermentation of RGE with LAB ([5]; 7 days, relative to the first day): about 30%
- Fecal recovery, change by the amoxicillin treatment [6]: increased
- Fecal recovery, change by LAB treatment [7]: significantly decreased
- AUC ([12]; Amoxicillin + LAB (LAB 2 g/kg once daily 7 days), AUC 0 to 48 h): 25.3 ± 10.6 ng·h/mL
- Cmax ([12]; Amoxicillin + LAB): 4.8 ± 1.9 ng/mL
- Half-Life ([12]; Amoxicillin + LAB): 5.3 ± 1.1 h
- MRT ([12]; Amoxicillin + LAB): 3.5 ± 0.9 h
- Tmax ([12]; Amoxicillin + LAB): 2.5 ± 1.0 h
- Detection in mouse plasma following repeated LAB administration in addition to amoxicillin [12]: detected
- Detection in plasma, control mice and amoxicillin group [12]: not detected
- Plasma exposure / pharmacokinetic parameters, LAB treatment compared with amoxicillin group [12]: increased

Now from value to compound, other results behind:

- Plasma amoxicillin concentration [3]: 0.9 to 1.8 µg/mL
Compound: CC1(C)S[C@@H]2[C@H](NC(=O)[C@H](N)c3ccc(O)cc3)C(=O)N2[C@H]1C(=O)O [amoxicillin]
- Concentration of amoxicillin that must be maintained to inhibit the growth of LAB (LAB): ≤ 2 µg/mL

- fraction unbound at 4 h, 1 μM ([4]; pooled mouse plasma): 0.103
- Papp A→B at 1 h [9]: 21.6 ± 2.35 ×10⁻⁶ cm/s
Compound: CC(C)NCC(O)COc1cccc2ccccc12 (centres unmarked) [propranolol]
- Papp,AB reference values (Caco-2 cells): 18.8–33.1 × 10^−6 cm/s
- Plasma protein binding reference values [8]: 87–96%
